Source: PubChem BioAssay AID248 (DTP/NCI, 2004)
Where “and” joins values, the source holds several entries; their conditions need not be identical. Equal values may be shown once. Inconclusive results and toxic doses are left out. No stated cut-off is given here; in the data, active means T/C of 150% or more; inactive means T/C below 125%.

Tested on: L1210 leukemia ip in BDF1 mice, survival T/C
Test: NCI In Vivo Anticancer Drug Screen. Data for tumor model L1210 Leukemia (intraperitoneal) in B6D2F1 (BDF1) mice
Settings: endpoint: mean survival time, higher = longer survival
In short: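 Survival endpoint. Drug-treated group vs vehicle group, expressed as T divided by C. Tumor passaged by transplantation.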

[1] = dose: 100.0 mg/kg/injection, schedule: Q01DX001 (ip), vehicle: Klucel (hydroxypropylcellulose) (HPC)
[2] = dose: 100.0 mg/kg/injection, schedule: Q01DX009 (ip), vehicle: Klucel (hydroxypropylcellulose) (HPC)
[3] = dose: 200.0 mg/kg/injection, schedule: Q01DX001 (ip), vehicle: Klucel (hydroxypropylcellulose) (HPC)
[4] = dose: 200.0 mg/kg/injection, schedule: Q01DX009 (ip), vehicle: Klucel (hydroxypropylcellulose) (HPC)
[5] = dose: 400.0 mg/kg/injection, schedule: Q01DX001 (ip), vehicle: Klucel (hydroxypropylcellulose) (HPC)
[6] = dose: 400.0 mg/kg/injection, schedule: Q01DX009 (ip), vehicle: Klucel (hydroxypropylcellulose) (HPC)
[7] = dose: 100.0 mg/kg/injection, schedule: Q04DX003 (ip), vehicle: Klucel (hydroxypropylcellulose) (HPC)
[8] = dose: 200.0 mg/kg/injection, schedule: Q04DX003 (ip), vehicle: Klucel (hydroxypropylcellulose) (HPC)
[9] = dose: 400.0 mg/kg/injection, schedule: Q04DX003 (ip), vehicle: Klucel (hydroxypropylcellulose) (HPC)
[10] = dose: 100.0 mg/kg/injection, schedule: Q04DX003 (ip), vehicle: saline
[11] = dose: 200.0 mg/kg/injection, schedule: Q04DX003 (ip), vehicle: saline
[12] = dose: 400.0 mg/kg/injection, schedule: Q04DX003 (ip), vehicle: saline
[13] = dose: 50.0 mg/kg/injection, schedule: Q01DX001 (ip), vehicle: saline
[14] = dose: 100.0 mg/kg/injection, schedule: Q01DX001 (ip), vehicle: saline
[15] = dose: 200.0 mg/kg/injection, schedule: Q01DX001 (ip), vehicle: saline
[16] = dose: 400.0 mg/kg/injection, schedule: Q01DX001 (ip), vehicle: saline
[17] = dose: 100.0 mg/kg/injection, schedule: Q04DX003 (ip), vehicle: saline with Tween-80
[18] = dose: 200.0 mg/kg/injection, schedule: Q04DX003 (ip), vehicle: saline with Tween-80
[19] = dose: 400.0 mg/kg/injection, schedule: Q04DX003 (ip), vehicle: saline with Tween-80
[20] = dose: 50.0 mg/kg/injection, schedule: Q01DX009 (ip), vehicle: Klucel (hydroxypropylcellulose) (HPC)

Measured: T/C

CCCCCCCCCCCNC(=O)CCl
inactive: dose: 75.0 mg/kg/injection, schedule: Q04DX003 (ip), vehicle: Klucel (hydroxypropylcellulose) (HPC) 91 % of control | dose: 150.0 mg/kg/injection, schedule: Q04DX003 (ip), vehicle: Klucel (hydroxypropylcellulose) (HPC) 92 % of control | dose: 300.0 mg/kg/injection, schedule: Q04DX003 (ip), vehicle: Klucel (hydroxypropylcellulose) (HPC) 89 % of control

O=C1CCOc2ccc3ccccc3c21
inactive: [1] 101 % of control | [2] 109 % of control | [3] 98 % of control | [4] 101 % of control | [5] 90 % of control | [6] 111 % of control

CC(=O)c1c(C)[nH]c(C(=O)OC(C)(C)C)c1C
inactive: [1] 95 % of control | [7] 102 % of control | [3] 97 % of control | [8] 96 % of control | [5] 95 % of control | [9] 96 % of control

COC(=O)c1ccc(C(=O)O)cc1[N+](=O)[O-]
inactive: [2] 102 % of control | [4] 102 % of control | [6] 90 % of control

CCOC(=O)C1C(=O)C(CN(CCCl)CCCl)C(=O)C(C(=O)OCC)C1c1ccc(OC)c(OC)c1OC (stereo unspecified)
inactive: [2] 90 % of control | [4] 92 % of control | [6] 95 % of control

S=C(SSC(=S)N1CCCCC1)N1CCCCC1
inactive: [10] 104 % of control | [11] 98 % of control | [12] 101 % of control

NC(=O)Nc1cc(N)cc(NC(N)=O)c1
inactive: [10] 96 % of control | [11] 107 % of control | [12] 106 % of control

CC(OCCC#N)C(C)OCCC#N (stereo unspecified)
inactive: dose: 44.0 mg/kg/injection, schedule: Q01DX001 (ip), vehicle: saline 93 % of control | dose: 45.0 mg/kg/injection, schedule: Q01DX001 (ip), vehicle: saline 102 % of control | [13] 98 % of control | dose: 67.0 mg/kg/injection, schedule: Q01DX001 (ip), vehicle: saline 96 % of control and 104 % of control | [14] 98 % of control and 101 % of control (2×) | dose: 150.0 mg/kg/injection, schedule: Q01DX001 (ip), vehicle: saline 101 % of control and 102 % of control | [15] 98 % of control | [16] 98 % of control

CCC(CO)NCc1cc(=O)[nH]c(=O)[nH]1 (stereo unspecified)
inactive: [10] 96 % of control | [11] 96 % of control | [12] 102 % of control

Cc1ccc(O)c(C2CC3CCC2C3)c1 (stereo unspecified)
inactive: dose: 100.0 mg/kg/injection, schedule: Q04DX003 (ip), vehicle: saline + alcohol 97 % of control | dose: 200.0 mg/kg/injection, schedule: Q04DX003 (ip), vehicle: saline + alcohol 92 % of control | dose: 400.0 mg/kg/injection, schedule: Q04DX003 (ip), vehicle: saline + alcohol 95 % of control

CCN(CC)c1ccc(N=C2C=C(C(=O)Nc3ccccc3)C(=O)c3ccccc32)cc1
inactive: dose: 100.0 mg/kg/injection, schedule: Q01DX001 (ip), vehicle: other 86 % of control | dose: 200.0 mg/kg/injection, schedule: Q01DX001 (ip), vehicle: other 89 % of control | dose: 400.0 mg/kg/injection, schedule: Q01DX001 (ip), vehicle: other 88 % of control

C[N+](C)(C)Cc1ccccc1/C(=N\O)c1ccccc1
inactive: dose: 10.0 mg/kg/injection, schedule: Q01DX001 (ip), vehicle: carboxymethylcellulose (CMC) 96 % of control | dose: 20.0 mg/kg/injection, schedule: Q01DX001 (ip), vehicle: carboxymethylcellulose (CMC) 101 % of control

CC1(C)OC(COC(=O)c2ccccc2)C2OC(C)(C)OC(COC(=O)c3ccccc3)C2O1 (stereo unspecified)
inactive: dose: 100.0 mg/kg/injection, schedule: Q01DX001 (ip), vehicle: carboxymethylcellulose (CMC) 93 % of control | dose: 200.0 mg/kg/injection, schedule: Q01DX001 (ip), vehicle: carboxymethylcellulose (CMC) 90 % of control | dose: 400.0 mg/kg/injection, schedule: Q01DX001 (ip), vehicle: carboxymethylcellulose (CMC) 95 % of control

O=C(Nc1cccc(Cl)c1)Nc1cccc(Cl)c1
inactive: [2] 94 % of control | [7] 102 % of control | [4] 108 % of control | [8] 93 % of control | [6] 101 % of control | [9] 100 % of control

CC(Cc1ccccc1)n1c(-c2ccccc2)c[n+]2ccccc12 (stereo unspecified)
inactive: dose: 1.17 mg/kg/injection, schedule: Q01DX001 (ip), vehicle: other 101 % of control | dose: 2.34 mg/kg/injection, schedule: Q01DX001 (ip), vehicle: other 102 % of control | dose: 4.69 mg/kg/injection, schedule: Q01DX001 (ip), vehicle: other 102 % of control

Nc1c(Br)cc2c(c1Br)Cc1cc(Br)ccc1-2
inactive: dose: 200.0 mg/kg/injection, schedule: Q01DX Z (ip), vehicle: saline 109 % of control | dose: 400.0 mg/kg/injection, schedule: Q01DX Z (ip), vehicle: saline 107 % of control | dose: 800.0 mg/kg/injection, schedule: Q01DX Z (ip), vehicle: saline 112 % of control | dose: 1600.0 mg/kg/injection, schedule: Q01DX Z (ip), vehicle: saline 112 % of control

O=[N+]([O-])c1ccc2nc3c(nc2c1)-c1cccc2cccc-3c12
inactive: dose: 25.0 mg/kg/injection, schedule: Q01DX009 (ip), vehicle: saline with Tween-80 89 % of control | dose: 50.0 mg/kg/injection, schedule: Q01DX009 (ip), vehicle: saline with Tween-80 91 % of control | dose: 100.0 mg/kg/injection, schedule: Q01DX009 (ip), vehicle: saline with Tween-80 94 % of control | [17] 97 % of control | [18] 97 % of control | [19] 103 % of control

O=C(CCCC(=O)N/N=C/c1cc(Cl)ccc1[N+](=O)[O-])N/N=C\c1cc(Cl)ccc1[N+](=O)[O-]
inactive: [13] 98 % of control | [14] 90 % of control | [15] 95 % of control | [16] 98 % of control

CC(=O)Nc1ccc(C)c2ccccc12
inactive: dose: 50.0 mg/kg/injection, schedule: Q04DX003 (ip), vehicle: saline with Tween-80 116 % of control | [17] 100 % of control | [18] 100 % of control | [19] 96 % of control

COC(=O)c1ccc(C)c(-n2c(-c3ccccc3)nnc2-c2ccccc2)c1
inactive: [20] 102 % of control | [2] 93 % of control | [7] 95 % of control | [4] 95 % of control | [8] 92 % of control | [9] 97 % of control

CC1(C(=O)O)C2CCC(C2)C1C(=O)O (stereo unspecified)
inactive: [10] 107 % of control | [11] 102 % of control | [12] 105 % of control

CNC(=S)N/N=C/C(=N\NC(=S)NC)C(O)C(O)C(O)C(O)CO (stereo unspecified)
inactive: dose: 50.0 mg/kg/injection, schedule: Q01DX009 (ip), vehicle: saline 100 % of control | [14] 100 % of control | dose: 100.0 mg/kg/injection, schedule: Q01DX009 (ip), vehicle: saline 91 % of control | [15] 97 % of control | dose: 200.0 mg/kg/injection, schedule: Q01DX009 (ip), vehicle: saline 100 % of control

CN(C(=O)CCl)c1ccccc1
inactive: dose: 12.5 mg/kg/injection, schedule: Q01DX009 (ip), vehicle: Klucel (hydroxypropylcellulose) (HPC) 92 % of control | dose: 25.0 mg/kg/injection, schedule: Q01DX009 (ip), vehicle: Klucel (hydroxypropylcellulose) (HPC) 98 % of control | dose: 25.0 mg/kg/injection, schedule: Q04DX003 (ip), vehicle: Klucel (hydroxypropylcellulose) (HPC) 104 % of control | [20] 93 % of control | dose: 50.0 mg/kg/injection, schedule: Q04DX003 (ip), vehicle: Klucel (hydroxypropylcellulose) (HPC) 98 % of control | [7] 88 % of control
